The record followed here is patent US20260191933A1, “PHARMACEUTICAL COMBINATIONS AND USES THEREOF” (The University of Melbourne, priority 2022, published 2026).

One test deals with CSPG-ECM (neurofibrosis). The test is described as follows: I.C.V. fluorosamine in obese mice: CSPG-ECM expression (WFA immunostaining). Type of test: in vivo, C57BL/6J mice. Here is the method:
All image quantification was performed in Image J (NIH) software (NIH, MA). Raw images underwent background subtraction using a rolling ball algorithm to minimize background and any potential variance in tissue autofluorescence. To quantify area and intensity of the CSPG-ECM within each brain region (ARC, VMH or RSG cortex) images were thresholded and binarized to create a region of interest (ROI) mask of only the CSPG-ECM. For each brain area, CSPG-ECM ROI area (μm^2) and intensity (sum of all pixel intensities within the ROI) was calculated. This process was automated to minimise bias and to account for differences in brain nuclei size across multiple images. Brain nuclei were defined in accordance with the Paxinos and Franklin mouse brain atlas (http://labs.gaidi.ca/mouse-brain-atlas/). The area and intensity of CSPG-ECM within each region was normalised to the respective control.
(§1) Under isoflurane anaesthetic 12-week HFHS fed C57BL/6J or AgRP-Cas9 mice were implanted stereotaxically with guide cannulas into the right lateral ventricle (0.2 mm posterior, 1.0 mm lateral from bregma). Guide cannula was positioned 1.3 mm above the injection site (1 mm ventral to the surface of the skull). AgRP-Cas9 mice were treated with either AAV-gScrambled or AAV-gIR and underwent guide cannula placement 7 days post AAV administration. Mice were administered I.C.V. vehicle (ddH2O), fluorosamine (100 μg/animal/day or 250 μgl/animal/day) in a volume of 2 μl/animal and all compounds were delivered approximately 1 h before lights off (7 pm).

Test [1] has as its system 12-week HFHS fed obese mice. The test can be described thus: I.C.V. fluorosamine in obese mice: body weight, adiposity, energy expenditure, food intake. It counts as in vivo, C57BL/6J mice. The conditions noted are these: I.C.V. for 10 days. Here is the method: Metabolic measurements were undertaken in the Melbourne Mouse Metabolic Phenotyping Platform (The University of Melbourne, Australia). Glucose tolerance tests were performed on 6 h fasted conscious mice respectively by injecting D-glucose (2 mg/g of lean body mass and 1 mg/g lean mass for db/db and HFHS+STZ mice) into the peritoneal cavity and measuring glucose in tail blood immediately before and at 15, 30, 45, 60, 90 and 120 min after injection using an Accu-Check glucometer (Roche, Germany). The areas under glucose excursion curves were determined and expressed as mmol/l×min. Fasted (12 h fast) plasma insulin or glucose levels were determined using a Rat/Mouse Insulin ELISA (EZRMI-13K, Merck Millipore, CA) or an Accu-Check glucometer respectively. The HOMA-IR was calculated using the equation [(glucose×insulin)/405]. Adiposity was measured using TD-NMR minispec (Bruker Optics Inc., Billerica, MA).
Mice were acclimated for 24 h and then monitored for 48 h in an environmentally controlled Promethion Metabolic Screening System (Sable Systems International, NV) fitted with indirect open circuit calorimetry, food consumption and activity monitors to measure activity, caloric intake and energy expenditure. Respiratory quotients were calculated as the ratio of CO2 production over O2 consumption respiratory exchange ratio and energy expenditure was calculated using the Weir equation (Kcal h−1=60×(0.003941×VO2+0.001106×VCO2). To account for difference in body mass/composition energy expenditure was analysed and adjusted using ANCOVA using scripts available at the National Mouse Metabolic Phenotyping Centers (MMPC, Nashville, TN, USA) Energy Expenditure Analysis Page (https://www.mmpc.org/shared/regression.aspx).
as §1

Test [2] concerns HFHS plus low dose STZ mice. The test is described as follows: I.C.V. fluorosamine in late-stage type-2 diabetes model (HFHS plus low dose streptozotocin). It counts as in vivo, C57BL/6J mice. Conditions: I.C.V. for 14 days. How it is done: Mice were maintained on a 12 h light-dark cycle in a temperature-controlled high-barrier facility with free access to food and water per NHMRC Australian Code of Practice for the Care and Use of Animals. C57BL/6J and Balb/C mice were sourced from the Animal Resources Centre, Australian, whereas Agrp-IRES-Cre (Strain #:012899), db/db (strain #: 000697), Npy-GFP (Strain #:006417), Pomc-GFP (Strain #:009593), LSL-Cas9 (Strain #:028551), NZO (Strain #:002105) mice were sourced from Jackson Laboratories, USA. […]
Metabolic measurements were undertaken in the Melbourne Mouse Metabolic Phenotyping Platform (The University of Melbourne, Australia). […] The areas under glucose excursion curves were determined and expressed as mmol/l×min. Fasted (12 h fast) plasma insulin or glucose levels were determined using a Rat/Mouse Insulin ELISA (EZRMI-13K, Merck Millipore, CA) or an Accu-Check glucometer respectively. The HOMA-IR was calculated using the equation [(glucose×insulin)/405]. Adiposity was measured using TD-NMR minispec (Bruker Optics Inc., Billerica, MA). […]

The test system of test [3] is 12-week HFHS fed obese mice. The test is described as follows: Example 21: 14-day treatment and off-treatment phase, weight rebound, body composition, metabolic rate, food intake. Type of test: in vivo, C57BL/6J male mice.
Description: To induce diet-induced obesity in adulthood, the mice were ad libitum access to water and high-fat-high-sugar (HFHS) diet (43% of total energy from fat, SF04-001, Speciality Feeds, Australia) starting at eight weeks of age for 12 weeks. Aged-matched chow-fed C57BL/6J male mice were ad libitum access to standard chow diet throughout full duration of the experiment.
Mice adiposity and lean mass were measured via the TD-NMR minispec (Bruker Optics Inc., USA) acquiring EchoMRI-900 Body Composition Analyser (EchoMRI LLC, USA). Interscapular brown adipose tissue, inguinal and epidermal white adipose tissues and the liver were weighed to determine tissue-specific adiposity.
At day 15, treatments were discontinued however all groups continued to receive ad libitum access to HFHS diet to assess the rebound following treatment cessation.

Consider `CC(=O)NC1C(OC(C)=O)OC(COC(C)=O)[C@@H](F)C1OC(C)=O` (stereo partly shown) [PZ6005, per-O-acetylated-4-F-N-acetylglucosamine], for which the “CSPG-ECM expression in the habenula” value in the test on CSPG-ECM (neurofibrosis) (I.C.V., at the highest dose) was “only partially attenuated”. Besides, the “neurofibrosis within the ARC (WFA immunostaining)” value with CSPG-ECM (neurofibrosis) (obese mice, I.C.V. daily for 10 days) was “significantly attenuated”. The “CSPG-ECM in other brain areas such as the RSG cortex” value in the test on CSPG-ECM (neurofibrosis) (obese mice, I.C.V. for 10 days) is “did not reduce”. Moreover, in test [1], the adiposity entry is “reduced adiposity” and the body weight entry is “promoted weight loss”. Moreover, in test [1] (independently of ambulatory activity), the energy expenditure result is recorded as “enhanced energy expenditure”. Also, the food intake entry in test [1] (through enhanced satiety) is on record as “supressed food intake”. Moreover, in test [2], the “remission of metabolic disease (daily blood glucose, glucose tolerance)” value was “promote the remission of metabolic disease”. In addition, the “baseline fat mass, without affecting lean mass” value in test [3] (14 days after terminating treatments, compared to vehicle and liraglutide alone) is reported as “significant decrease”. Moreover, the “mean weight loss from baseline (day 0)” value in test [3] (day 14, PZ6005 100 μg/animal I.C.V. every second day, liraglutide 200 μg/kg daily) is reported as 15.08±1.45%. For the same compound, the liver mass result in test [3] (end of experiment, vs other littermates) is on record as “lower liver mass”. Moreover, the “day of return to baseline body weight” value in test [3] (off-treatment phase) was 30.00 ± 1.72 days. For the same compound, the “oxygen consumption and whole-body energy expenditure” value in test [3] (treatment phase, without effects on ambulatory activity) was “elevated”.
